Measured values taken from US8008303B2, “Biphenyl derivatives and their use in treating hepatitis C” (AstraZeneca AB, priority 2005, dated 2011).
Where two headings read alike, the source gives them in different places.

How the values were obtained:
[1] = tested on: HCV replicon cells Huh 9B; experiment: HCV replicon assay (luciferase readout); format: cell-based
Outline: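 Compounds, made up at twice final strength (final DMSO 1%), were added to subgenomic replicon cells one day after plating. Incubation then ran 72 h at 37 °C, 5% CO2, without G418. Replication was quantified as firefly luciferase luminescence in lysed cells, with cytotoxicity assessed on a duplicate clear plate.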

[2] = tested on: HCV replicon cells Huh 9B; format: cell-based
[3] = Hepatitis C virus, 72 h, concentration reducing replicon level (luciferase activity) by 50% vs untreated cell control, 72 h incubation
[4] = concentration reducing total cell area by 50% relative to DMSO controls, methylene blue, absorbance 620 nm, 72 h incubation

Compound	IC50 [1]	TD50 [2]	IC50 [1, 3]	TD50 [2, 4]
Cc1cc(C(=O)Nc2ccc(N3CCOCC3)cc2)ccc1-c1cccc(C(=O)Nc2ccc(CN3CCS(=O)(=O)CC3)cc2)c1 [Example 135, 2′-Methyl-biphenyl-3,4′-dicarboxylic acid 3-{[4-(1,1-dioxo-1 lambda*6*-thiomorpholin-4-ylmethyl)-phenyl]-amide} 4′-[(4-morpholin-4-yl-phenyl)-amide]]	< 1000 nM	* (key: * < 50 μM; ** > 50 μM)		
Cc1ccc(C(=O)Nc2ccc(N3CCOCC3)cc2)cc1-c1ccc(C(=O)Nc2cccc(CN3CCS(=O)(=O)CC3)c2)cc1 [Example 136, 6-Methyl-biphenyl-3,4′-dicarboxylic acid 4′-{[3-(1,1-dioxo-1lambda*6*-thiomorpholin-4-ylmethyl)-phenyl]-amide} 3-[(4-morpholin-4-yl-phenyl)-amide]]	1000 to 5000 nM	* (key: * < 50 μM; ** > 50 μM)		
Cc1ccc(C(=O)NCCCN2CCCC2=O)cc1-c1ccc(C(=O)Nc2ccc(CN3CCS(=O)(=O)CC3)cc2)cc1 [Example 137, 6-Methyl-biphenyl-3,4′-dicarboxylic acid 4′-{[4-(1,1-dioxo-1lambda*6*-thiomorpholin-4-ylmethyl)-phenyl]-amide} 3-{[3-(2-oxo-pyrrolidin-1-yl) -propyl]-amide}]	1000 to 5000 nM	* (key: * < 50 μM; ** > 50 μM)		
CCC1(c2ccc(NC(=O)c3ccc(C)c(-c4ccc(C(=O)Nc5ccc(CN6CCS(=O)(=O)CC6)cc5)cc4)c3)cc2)CCC(=O)NC1=O (stereo not drawn) [Example 138, 6-Methyl-biphenyl-3,4′-dicarboxylic acid 4′-{[4-(1,1-dioxo-1lambda*6*-thiomorpholin-4-ylmethyl)-phenyl]-amide} 3-{[4-(3-ethyl-2,6-dioxo-piperidin-3-yl)-phenyl]-amide}]	< 1000 nM	* (key: * < 50 μM; ** > 50 μM)		
Cc1ccc(C(=O)Nc2ccc(-n3cncn3)cc2)cc1-c1ccc(C(=O)Nc2ccc(CN3CCS(=O)(=O)CC3)cc2)cc1 [Example 139, 6-Methyl-biphenyl-3,4′-dicarboxylic acid 4′-{[4-(1,1-dioxo-1lambda*6*-thiomorpholin-4-ylmethyl)-phenyl]-amide} 3-[(4-[1,2,4]triazol-1-yl-phenyl)-amide]]	< 1000 nM	* (key: * < 50 μM; ** > 50 μM)		
Cc1ccc(C(=O)Nc2ccc(C(=O)N3CCOCC3)cc2)cc1-c1ccc(C(=O)Nc2ccc(CN3CCS(=O)(=O)CC3)cc2)cc1 [Example 140, 6-Methyl-biphenyl-3,4′-dicarboxylic acid 4′-{[4-(1,1-dioxo-1lambda*6*-thiomorpholin-4-ylmethyl)-phenyl]-amide} 3-{[4-(morpholine-4-carbonyl) -phenyl]-amide}]	1000 to 5000 nM	* (key: * < 50 μM; ** > 50 μM)		
CNC(=O)c1ccc(NC(=O)c2ccc(C)c(-c3ccc(C(=O)Nc4ccc(CN5CCS(=O)(=O)CC5)cc4)cc3)c2)cc1 [Example 141, 6-Methyl-biphenyl-3,4′-dicarboxylic acid 4′-{[4-(1,1-dioxo-1lambda*6*-thiomorpholin-4-ylmethyl)-phenyl]-amide} 3-[(4-methylcarbamoyl-phenyl)-amide]]	1000 to 5000 nM	* (key: * < 50 μM; ** > 50 μM)		
Cc1ccc(C(=O)Nc2ccc(C(=O)N(C)C)cc2)cc1-c1ccc(C(=O)Nc2ccc(CN3CCS(=O)(=O)CC3)cc2)cc1 [Example 142, 6-Methyl-biphenyl-3,4′-dicarboxylic acid 3-[(4-dimethylcarbamoyl-phenyl)-amide] 4′-{[4-(1,1-dioxo-1lambda*6*-thiomorpholin-4-ylmethyl)-phenyl]-amide}]	1000 to 5000 nM	* (key: * < 50 μM; ** > 50 μM)		
CCc1nnc(NC(=O)c2ccc(C)c(-c3ccc(C(=O)Nc4ccc(CN5CCS(=O)(=O)CC5)cc4)cc3)c2)s1 [Example 143, 6-Methyl-biphenyl-3,4′-dicarboxylic acid 4′-{[4-(1,1-dioxo-1lambda*6*-thiomorpholin-4-ylmethyl)-phenyl]-amide} 3-[(5-ethyl-[1,3,4]thiadiazol-2-yl)-amide]]	1000 to 5000 nM	* (key: * < 50 μM; ** > 50 μM)		
Cc1ccc(C(=O)Nc2ccc(C(=O)N3CCCCC3)cc2)cc1-c1ccc(C(=O)Nc2ccc(CN3CCS(=O)(=O)CC3)cc2)cc1 [Example 144, 6-Methyl-biphenyl-3,4′-dicarboxylic acid 4′-{[4-(1,1-dioxo-1lambda*6*-thiomorpholin-4-ylmethyl)-phenyl]-amide} 3-{[4-(piperidine-1-carbonyl) -phenyl]-amide}]	1000 to 5000 nM	* (key: * < 50 μM; ** > 50 μM)		
Cc1cc(NC(=O)c2ccc(C)c(-c3ccc(C(=O)Nc4ccc(CN5CCS(=O)(=O)CC5)cc4)cc3)c2)sn1 [Example 145, 6-Methyl-biphenyl-3,4′-dicarboxylic acid 4′-{[4-(1,1-dioxo-1lambda*6*-thiomorpholin-4-ylmethyl)-phenyl]-amide} 3-[(3-methyl-isothiazol-5-yl)-amide]]	1000 to 5000 nM	* (key: * < 50 μM; ** > 50 μM)		
Cc1ccc(C(=O)NCC2CCCCC2)cc1-c1ccc(C(=O)Nc2ccc(CN3CCS(=O)(=O)CC3)cc2)cc1 [Example 146, 6-Methyl-biphenyl-3,4′-dicarboxylic acid 3-cyclohexylmethyl-amide 4′-{[4-(1,1-dioxo-1lambda*6*-thiomorpholin-4-ylmethyl)-phenyl]-amide}]	< 1000 nM	* (key: * < 50 μM; ** > 50 μM)		
Cc1ccc(C(=O)NC2CCCCCC2)cc1-c1ccc(C(=O)Nc2ccc(CN3CCS(=O)(=O)CC3)cc2)cc1 [Example 147, 6-Methyl-biphenyl-3,4′-dicarboxylic acid 3-cycloheptylamide 4′-{[4-(1,1-dioxo-1lambda*6*-thiomorpholin-4-ylmethyl)-phenyl]-amide}]	1000 to 5000 nM	* (key: * < 50 μM; ** > 50 μM)		
Cc1ccc(C(=O)NC2CCCC2)cc1-c1ccc(C(=O)Nc2ccc(CN3CCS(=O)(=O)CC3)cc2)cc1 [Example 148, 6-Methyl-biphenyl-3,4′-dicarboxylic acid 3-cyclopentylamide 4′-{[4-(1,1-dioxo-1lambda*6*-thiomorpholin-4-ylmethyl)-phenyl]-amide}]	1000 to 5000 nM	* (key: * < 50 μM; ** > 50 μM)		
Cc1ccc(NC(=O)C2CC2)cc1-c1ccc(NC(=O)c2ccc(CN3CCS(=O)(=O)CC3)cc2)cc1 [Example 149, N-[5′-(Cyclopropanecarbonyl-amino)-2′-methyl-biphenyl-4-yl]-4-(1,1-dioxo-1lambda*6*-thiomorpholin-4-ylmethyl)-benzamide]			< 1000 nM	* (* < 50 μM)
Cc1ccc(NC(=O)C2CCCCC2)cc1-c1ccc(NC(=O)c2ccc(CN3CCS(=O)(=O)CC3)cc2)cc1 [Example 150, N-[5′-(Cyclohexanecarbonyl-amino)-2′-methyl-biphenyl-4-yl]-4-(1,1-dioxo-1lambda*6*-thiomorpholin-4-ylmethyl)-benzamide]			< 1000 nM	* (* < 50 μM)
Cc1ccc(C(=O)Nc2ccc(N3CCOCC3)cc2)cc1-c1ccc(NC(=O)c2ccc(CN3CCS(=O)(=O)CC3)cc2)cc1 [Example 151, 4′-[4-(1,1-Dioxo-1lambda*6*-thiomorpholin-4-ylmethyl)-benzoylamino]-6-methyl-biphenyl-3-carboxylic acid (4-morpholin-4-yl-phenyl)-amide]			< 1000 nM	* (* < 50 μM)
Cc1ccc(NC(=O)N2CCOCC2)cc1-c1ccc(C(=O)Nc2ccc(CN3CCS(=O)(=O)CC3)cc2)cc1 [Example 152, Morpholine-4-carboxylic acid {4′-[4-(1,1-dioxo-1lambda*6*-thiomorpholin-4-ylmethyl)-phenylcarbamoyl]-6-methyl-biphenyl-3-yl}-amide]			< 1000 nM	** (** > 50 μM)
Cc1ccc(NC(=O)c2ccco2)cc1-c1ccc(C(=O)Nc2ccc(CN3CCS(=O)(=O)CC3)cc2)cc1 [Example 153, Furan-2-carboxylic acid {4′-[4-(1,1-dioxo-1lambda*6*-thiomorpholin-4-ylmethyl)-phenylcarbamoyl]-6-methyl-biphenyl-3-yl}-amide]			< 1000 nM	* (* < 50 μM)
Cc1ccc(NC(=O)c2ccc(Br)cc2)cc1-c1ccc(C(=O)Nc2ccc(CN3CCS(=O)(=O)CC3)cc2)cc1 [Example 154, 5′-(4-Bromo-benzoylamino)-2′-methyl-biphenyl-4-carboxylic acid [4-(1,1-dioxo-1lambda*6*-thiomorpholin-4-ylmethyl)-phenyl]-amide]			< 1000 nM	* (* < 50 μM)
Cc1ccc(NC(=O)c2cccs2)cc1-c1ccc(C(=O)Nc2ccc(CN3CCS(=O)(=O)CC3)cc2)cc1 [Example 155, Thiophene-2-carboxylic acid {4′-[4-(1,1-dioxo-1lambda*6*-thiomorpholin-4-ylmethyl)-phenylcarbamoyl]-6-methyl-biphenyl-3-yl}-amide]			< 1000 nM	* (* < 50 μM)
Cc1ccc(NC(=O)c2cccnc2)cc1-c1ccc(C(=O)Nc2ccc(CN3CCS(=O)(=O)CC3)cc2)cc1 [Example 156, N-{4′-[4-(1,1-Dioxo-1lambda*6*-thiomorpholin-4-ylmethyl)-phenylcarbamoyl]-6-methyl-biphenyl-3-yl}-nicotinamide]			1000 to 5000 nM	* (* < 50 μM)
Cc1ccc(NC(=O)c2cccn2C)cc1-c1ccc(C(=O)Nc2ccc(CN3CCS(=O)(=O)CC3)cc2)cc1 [Example 157, 1-Methyl-1H-pyrrole-2-carboxylic acid {4′-[4-(1,1-dioxo-1lambda*6*-thiomorpholin-4-ylmethyl)-phenylcarbamoyl]-6-methyl-biphenyl-3-yl}-amide]			< 1000 nM	* (* < 50 μM)
Cc1ccc(NC(=O)C2CCCCC2)cc1-c1ccc(C(=O)Nc2ccc(CN3CCS(=O)(=O)CC3)cc2)cc1 [Example 158, 5′-(Cyclohexanecarbonyl-amino)-2′-methyl-biphenyl-4-carboxylic acid [4-(1,1-dioxo-1lambda*6*-thiomorpholin-4-ylmethyl)-phenyl]-amide]			< 1000 nM	* (* < 50 μM)
